How the values were obtained:
Assay type in all cases: ADME, organism-based
Conditions in all cases: in vivo
[1] = species: Homo sapiens; experiment: Drug level in patient serum with chronic graft-versus-host disease by HPLC analysis
[2] = species: Homo sapiens; experiment: Drug level in patient serum with invasive aspergillosis by HPLC analysis
[3] = species: Homo sapiens; experiment: Drug level in patient serum with acute graft-versus-host disease by HPLC analysis
[4] = species: Homo sapiens; experiment: Drug level in patient serum with infection by HPLC analysis

Structure (SMILES): CC[C@@H]([C@H](C)O)n1ncn(-c2ccc(N3CCN(c4ccc(OC[C@@H]5CO[C@@](Cn6cncn6)(c6ccc(F)cc6F)C5)cc4)CC3)cc2)c1=O [POSACONAZOLE]
- Drug uptake [1]: 1.47 µg/mL
- Drug uptake [2]: 0.134 µg/mL
- Drug uptake [3]: 0.958 µg/mL
- Drug uptake [4]: 0.611 µg/mL

From ChEMBL document CHEMBL1649188, “Posaconazole therapeutic drug monitoring: a reference laboratory experience” (Antimicrob Agents Chemother, 2009)
